Literature values as cited in patent publication US20190133115A1, “PESTICIDAL SOLUBLE MICRO-EMULSION CONCENTRATE SEED TREATMENT FORMULATIONS” (priority 2017, published 2019).

Settings: in alcohols, e.g., ethanol, acetone, and toluene

In the case of `COCC(=O)N(c1c(C)cccc1C)C(C)C(=O)OC` (racemic) [Metalaxyl, methyl N-(methoxyacetyl)-N-(2,6-xylyl)-DL-alanate], the solubility is listed as “soluble”.
